{"source": "patent US8563597B2", "about": "“Fused tricyclic ether carbamates and their use” (priority 2010, dated 2013)", "key": {"[1]": {"tested_on": "HIV-1LAI", "experiment": "Antiviral activity against HIV-1LAI", "assay_type": "cell-based", "settings": "Human immunodeficiency virus 1"}, "[2]": {"target": "HIV-1 protease (Human immunodeficiency virus type 1 group M subtype B, UniProt P04585)", "experiment": "Enzymatic inhibitory activity (Ki) against HIV-1 protease", "assay_type": "biochemical"}, "[3]": {"tested_on": "HIV-1MDR/C (X4)", "experiment": "Antiviral activity against multi-drug resistant clinical isolates in PHA-PBMs (p24 Gag production)", "assay_type": "cell-based", "description": "(§1) Relative Antiviral activity of 33, and 34 against multi-drug resistant clinical isolates in PHA-PBMs"}, "[4]": {"tested_on": "HIV-1MDR/JSL (R5)", "experiment": "Antiviral activity against multi-drug resistant clinical isolates in PHA-PBMs (p24 Gag production)", "assay_type": "cell-based", "description": "as §1"}, "[5]": {"tested_on": "HIV-1MDR/TM (X4)", "experiment": "Antiviral activity against multi-drug resistant clinical isolates in PHA-PBMs (p24 Gag production)", "assay_type": "cell-based", "description": "as §1"}, "[6]": {"tested_on": "HIV-1MDR/B (X4)", "experiment": "Antiviral activity against multi-drug resistant clinical isolates in PHA-PBMs (p24 Gag production)", "assay_type": "cell-based", "description": "as §1"}, "[7]": {"tested_on": "HIV-1MDR/G (X4)", "experiment": "Antiviral activity against multi-drug resistant clinical isolates in PHA-PBMs (p24 Gag production)", "assay_type": "cell-based", "description": "as §1"}, "[8]": {"tested_on": "HIV-1MDR/MM (R5)", "experiment": "Antiviral activity against multi-drug resistant clinical isolates in PHA-PBMs (p24 Gag production)", "assay_type": "cell-based", "description": "as §1"}, "[9]": {"tested_on": "HIV-1ERS104pre (wild-type: X4)", "experiment": "Antiviral activity against clinical isolates in PHA-PBMs (p24 Gag production)", "assay_type": "cell-based", "description": "as §1"}, "[10]": {"tested_on": "highly PI-resistant clinical HIV-1 variants", "settings": "in vitro; result in words", "method": "In another embodiment, novel oxatricyclic [3(R), 3aS, 4aS, 7aR, 8aS] and [3(R), 3aS, 4aR, 7aS, 8aS]-ligands were designed, synthesized, and incorporated into the (R)-hydroxyethyl sulfonamide isostere. […] The antiviral activity of 33 against a panel of highly PI-resistant clinical HIV-1 variants in vitro was measured."}}, "data": [{"molecule": "COc1ccc(S(=O)(=O)N(CC(C)C)C[C@@H](O)[C@H](Cc2ccccc2)NC(=O)O[C@H]2CCCC3O[C@H]4OCC[C@H]4C32)cc1", "note": "(stereo partly shown)", "values": [{"measurement": "IC50", "setting": "[1]", "value": "< 10", "unit": "nM"}, {"measurement": "Ki", "setting": "[2]", "value": "< 0.1", "unit": "nM"}]}, {"molecule": "COc1ccc(S(=O)(=O)N(CC(C)C)C[C@@H](O)[C@H](Cc2ccccc2)NC(=O)O[C@H]2CO[C@H]3O[C@@H]4COC[C@@H]4[C@H]32)cc1", "values": [{"measurement": "Ki", "setting": "[2]", "value": "< 0.1", "unit": "nM"}]}, {"molecule": "COc1ccc(S(=O)(=O)N(CC(C)C)C[C@@H](O)[C@H](Cc2ccccc2)NC(=O)O[C@@H]2CO[C@@H]3O[C@H]4OCC[C@H]4[C@@H]32)cc1", "note": "[Inhibitor 34]", "values": [{"measurement": "IC50", "setting": "[1]", "value": "< 1000", "unit": "nM"}, {"measurement": "Ki", "setting": "[2]", "value": "< 10", "unit": "nM"}, {"measurement": "fold changes of IC50 values compared to wild-type HIV-1ERS104pre", "setting": "[3]", "value": 1, "unit": "fold"}, {"measurement": "fold changes of IC50 values compared to wild-type HIV-1ERS104pre", "setting": "[4]", "value": ">2", "unit": "fold"}, {"measurement": "fold changes of IC50 values compared to wild-type HIV-1ERS104pre", "setting": "[5]", "value": 2, "unit": "fold"}, {"measurement": "fold changes of IC50 values compared to wild-type HIV-1ERS104pre", "setting": "[6]", "value": 2, "unit": "fold"}, {"measurement": "fold changes of IC50 values compared to wild-type HIV-1ERS104pre", "setting": "[7]", "value": 2, "unit": "fold"}, {"measurement": "fold changes of IC50 values compared to wild-type HIV-1ERS104pre", "setting": "[8]", "value": 2, "unit": "fold"}, {"measurement": "fold changes of IC50 values compared to wild-type HIV-1ERS104pre", "setting": "[9]", "value": 1, "unit": "fold"}]}, {"molecule": "COc1ccc(S(=O)(=O)N(CC(C)C)C[C@@H](O)[C@H](Cc2ccccc2)NC(=O)O[C@H]2CO[C@H]3O[C@@H]4CCO[C@@H]4[C@H]32)cc1", "values": [{"measurement": "Ki", "setting": "[2]", "value": "< 0.1", "unit": "nM"}]}, {"molecule": "COc1ccc(S(=O)(=O)N(CC(C)C)C[C@@H](O)[C@H](Cc2ccccc2)NC(=O)O[C@@H]2CO[C@@H]3O[C@@H]4OCC[C@@H]4[C@@H]32)cc1", "note": "[Inhibitor 32]", "values": [{"measurement": "IC50", "setting": "[1]", "value": "< 10", "unit": "nM"}]}, {"molecule": "CC(C)CN(C[C@@H](O)[C@H](Cc1ccccc1)NC(=O)O[C@H]1CCOC1)S(=O)(=O)c1ccc(N)cc1", "note": "[APV, Amprenavir, reference compound]", "values": [{"measurement": "fold changes of IC50 values compared to wild-type HIV-1ERS104pre", "setting": "[3]", "value": 11, "unit": "fold"}, {"measurement": "fold changes of IC50 values compared to wild-type HIV-1ERS104pre", "setting": "[4]", "value": 13, "unit": "fold"}, {"measurement": "fold changes of IC50 values compared to wild-type HIV-1ERS104pre", "setting": "[5]", "value": 15, "unit": "fold"}, {"measurement": "fold changes of IC50 values compared to wild-type HIV-1ERS104pre", "setting": "[6]", "value": 16, "unit": "fold"}, {"measurement": "fold changes of IC50 values compared to wild-type HIV-1ERS104pre", "setting": "[7]", "value": 15, "unit": "fold"}, {"measurement": "fold changes of IC50 values compared to wild-type HIV-1ERS104pre", "setting": "[8]", "value": 9, "unit": "fold"}, {"measurement": "fold changes of IC50 values compared to wild-type HIV-1ERS104pre", "setting": "[9]", "value": 1, "unit": "fold"}]}, {"molecule": "CC(C)CN(C[C@@H](O)[C@H](Cc1ccccc1)NC(=O)O[C@H]1CO[C@H]2OCC[C@H]21)S(=O)(=O)c1ccc(N)cc1", "note": "[DRV, Darunavir, reference compound]", "values": [{"measurement": "fold changes of IC50 values compared to wild-type HIV-1ERS104pre", "setting": "[3]", "value": 2, "unit": "fold"}, {"measurement": "fold changes of IC50 values compared to wild-type HIV-1ERS104pre", "setting": "[4]", "value": 5, "unit": "fold"}, {"measurement": "fold changes of IC50 values compared to wild-type HIV-1ERS104pre", "setting": "[5]", "value": 6, "unit": "fold"}, {"measurement": "fold changes of IC50 values compared to wild-type HIV-1ERS104pre", "setting": "[6]", "value": 6, "unit": "fold"}, {"measurement": "fold changes of IC50 values compared to wild-type HIV-1ERS104pre", "setting": "[7]", "value": 6, "unit": "fold"}, {"measurement": "fold changes of IC50 values compared to wild-type HIV-1ERS104pre", "setting": "[8]", "value": 3, "unit": "fold"}, {"measurement": "fold changes of IC50 values compared to wild-type HIV-1ERS104pre", "setting": "[9]", "value": 1, "unit": "fold"}]}, {"molecule": "COc1ccc(S(=O)(=O)N(CC(C)C)C[C@@H](O)[C@H](Cc2ccccc2)NC(=O)OC2CS(=O)(=O)CC3OC4OCCC4C23)cc1", "note": "(stereo partly shown)", "values": [{"measurement": "Ki", "setting": "[2]", "value": "< 1", "unit": "nM"}]}, {"molecule": "COc1ccc(S(=O)(=O)N(CC(C)C)C[C@@H](O)[C@H](Cc2ccccc2)NC(=O)O[C@@H]2C[C@@H]3OC4OCCCC4[C@@H]3C2)cc1", "note": "(stereo partly shown)", "values": [{"measurement": "Ki", "setting": "[2]", "value": "< 0.1", "unit": "nM"}]}, {"molecule": "COc1ccc(S(=O)(=O)N(CC(C)C)C[C@@H](O)[C@H](Cc2ccccc2)NC(=O)OC2CS(=O)(=O)CC3OC4OCCCC4C23)cc1", "note": "(stereo partly shown)", "values": [{"measurement": "Ki", "setting": "[2]", "value": "> 10", "unit": "nM"}]}, {"molecule": "COc1ccc(S(=O)(=O)N(CC(C)C)C[C@@H](O)[C@H](Cc2ccccc2)NC(=O)O[C@H]2CO[C@H]3O[C@H]4OCC[C@H]4[C@H]32)cc1", "note": "[Inhibitor 31]", "values": [{"measurement": "IC50", "setting": "[1]", "value": "< 1000", "unit": "nM"}]}, {"molecule": "COc1ccc(S(=O)(=O)N(CC(C)C)C[C@@H](O)[C@H](Cc2ccccc2)NC(=O)O[C@H]2CO[C@H]3O[C@@H]4OCC[C@@H]4[C@H]32)cc1", "note": "[Inhibitor 33]", "values": [{"measurement": "IC50", "setting": "[1]", "value": "< 10", "unit": "nM"}, {"measurement": "antiviral activity against a panel of highly PI-resistant clinical HIV-1 variants", "setting": "[10]", "value": "effectively suppressed all tested clinical HIV-1 variants"}, {"measurement": "Ki", "setting": "[2]", "value": "< 0.1", "unit": "nM"}, {"measurement": "fold changes of IC50 values compared to wild-type HIV-1ERS104pre", "setting": "[3]", "value": 2, "unit": "fold"}, {"measurement": "fold changes of IC50 values compared to wild-type HIV-1ERS104pre", "setting": "[4]", "value": 5, "unit": "fold"}, {"measurement": "fold changes of IC50 values compared to wild-type HIV-1ERS104pre", "setting": "[5]", "value": 4, "unit": "fold"}, {"measurement": "fold changes of IC50 values compared to wild-type HIV-1ERS104pre", "setting": "[6]", "value": 7, "unit": "fold"}, {"measurement": "fold changes of IC50 values compared to wild-type HIV-1ERS104pre", "setting": "[7]", "value": 5, "unit": "fold"}, {"measurement": "fold changes of IC50 values compared to wild-type HIV-1ERS104pre", "setting": "[8]", "value": 5, "unit": "fold"}, {"measurement": "fold changes of IC50 values compared to wild-type HIV-1ERS104pre", "setting": "[9]", "value": 1, "unit": "fold"}]}, {"molecule": "CC(C)CN(C[C@@H](O)[C@H](Cc1ccccc1)NC(=O)O[C@@H]1C[C@@H]2[C@H]3OCC[C@H]3O[C@@H]2C1)S(=O)(=O)c1ccc(N)cc1", "values": [{"measurement": "Ki", "setting": "[2]", "value": "> 10", "unit": "nM"}]}, {"molecule": "CC(C)CN(C[C@@H](O)[C@H](Cc1ccccc1)NC(=O)O[C@H]1CO[C@H]2O[C@@H]3CCO[C@@H]3[C@H]21)S(=O)(=O)c1ccc(N)cc1", "values": [{"measurement": "Ki", "setting": "[2]", "value": "< 0.1", "unit": "nM"}]}, {"molecule": "COc1ccc(S(=O)(=O)N(CC(C)C)C[C@@H](O)[C@H](Cc2ccccc2)NC(=O)O[C@H]2CO[C@H]3C[C@@H]4OCC[C@@H]4[C@H]32)cc1", "note": "[Inhibitor 36]", "values": [{"measurement": "IC50", "setting": "[1]", "value": "> 1000", "unit": "nM"}, {"measurement": "Ki", "setting": "[2]", "value": "< 10", "unit": "nM"}]}, {"molecule": "COc1ccc(S(=O)(=O)N(CC(C)C)C[C@@H](O)[C@H](Cc2ccccc2)NC(=O)OC2CCCC3OC4OCCCC4C23)cc1", "note": "(stereo partly shown)", "values": [{"measurement": "Ki", "setting": "[2]", "value": "< 1", "unit": "nM"}]}, {"molecule": "CC(C)CN(C[C@@H](O)[C@H](Cc1ccccc1)NC(=O)O[C@H]1CO[C@H]2O[C@@H]3OCC[C@@H]3[C@H]21)S(=O)(=O)c1ccc(N)cc1", "values": [{"measurement": "Ki", "setting": "[2]", "value": "< 0.1", "unit": "nM"}]}, {"molecule": "CC(C)CN(C[C@@H](O)[C@H](Cc1ccccc1)NC(=O)O[C@@H]1C[C@@H]2[C@H]3COC[C@H]3O[C@@H]2C1)S(=O)(=O)c1ccc(N)cc1", "values": [{"measurement": "Ki", "setting": "[2]", "value": "< 0.1", "unit": "nM"}]}, {"molecule": "CC(C)CN(C[C@@H](O)[C@H](Cc1ccccc1)NC(=O)O[C@H]1CO[C@H]2O[C@@H]3COC[C@@H]3[C@H]21)S(=O)(=O)c1ccc(N)cc1", "values": [{"measurement": "Ki", "setting": "[2]", "value": "< 0.1", "unit": "nM"}]}, {"molecule": "COc1ccc(S(=O)(=O)N(CC(C)C)C[C@@H](O)[C@H](Cc2ccccc2)NC(=O)O[C@H]2CO[C@H]3C[C@H]4OCC[C@H]4[C@H]32)cc1", "note": "[Inhibitor 35]", "values": [{"measurement": "IC50", "setting": "[1]", "value": "< 1000", "unit": "nM"}, {"measurement": "Ki", "setting": "[2]", "value": "< 10", "unit": "nM"}]}]}
